Data reported in US10441562B2, “Aromatic farnesyl compound and application thereof” (INSTITUTE OF MICROBIOLOGY, CHINESE ACADEMY OF SCIENCES, priority 2015, dated 2019).
Marks after values point to notes of the source that are not given here.

Tests used:
[1] = test system: hyperglycemia mice induced by alloxan; assay: blood sugar of hyperglycemia mice induced by alloxan; format: in vivo, Kunming species mice; details: for effect on blood sugar level of hyperglycemic mice (in words): 50 mg/kg
Experimental: Blood glucose determination kit (batch number 20140403) is purchased from Nanjing Jiancheng Bioengineering Institute. Methods: after being acclimatized for 1 week, 10 randomly selected Kunming species male mice of SPF level of 20±2 g are used as control group, while the other 50 mice are given alloxan to make model by intraperitoneal injection according to body weight 220 mg/kg.

[2] = test system: hyperglycemia KK-A^y mice; assay: glucose tolerance test (OGTT) in hyperglycemia KK-A^y mice; format: in vivo; details: OGTT 12th day, glucose 2.0 g/kg oral
Experimental: KK-A^y mice are purchased from Chinese Academy of Medical Sciences & Peking Union Medical College Institute of Animal Studies. Experiments are carried out after adapting to the environment (T=20-24° C., constant humidity: 50-60%, 12 hours light exposure (8:00-20:00), soundproof, free feeding and drinking) for 1 week. Glucometer is purchased from Roche.
Each group has 8 mice, and is administrated successively for 3 weeks. Model control group is given with equal amounts of 0.5% CMC-Na.
3) Glucose tolerance test (OGTT): glucose tolerance is detected at the 12th day after administration. The mice are fasted for 12 hours and blood is collected (0 h). After being given with glucose (2.0 g/kg) by oral administration, blood is collected from tip of tail to detect the blood sugar level after 30 min, 60 min and 120 min respectively (see table 11).

[3] = test system: Wister rats fed with choline deficient diet; assay: hepatic tissue section of non-alcohol fatty liver rats (HE); format: in vivo; details: FIG. 2, 10 and 20 mg/kg
Experimental: (§1) Methods: male SPF level Wister rats are randomly divided into groups: (1) normal group (2) model control group (3) which is administered by compound S13 with the dose of 10 mg/kg (4) which is administered by compound S13 with the dose of 20 mg/kg (5) which is administered by compound S28 with the dose of 10 mg/kg […] which is administered by compound S28 with the dose of 20 mg/kg. Each group has 10 mice. The mice of normal group are fed with standard diet, the mice of other groups are fed with choline deficient diet (high-fat diet). Food intake and body weight are detected. Feeding with choline deficient diet are considered as a frequently-used hepatic adipose infiltration modeling method of rodent, which can induce the denaturation of hepatocyte, hepatitis and liver injury, at the same time the increase of blood lipid level can induce the insulin resistance.
(§2) After being fed with high-fat diet for 8 weeks, the mice of treated group are given drugs for 4 weeks successively. Model group and normal group are given with equal amounts of 0.5% CMC-Na. After administration of medicine for 4 weeks, the rats are executed under anesthesia, and then hepatic tissue and blood are collected.
4) Hepatic tissue section: after the last administration, the rats are executed under anesthesia. Collect the liver on the ice, then quickly fix the liver into formalin and prepare the tissue sections.

[4] = test system: Wister rats fed with choline deficient diet; assay: non-alcohol fatty liver disease in rats fed choline deficient (high-fat) diet; format: in vivo; details: for ALT / HDL-C / LDL-C / Liver index / TC / TG: 4 weeks
Experimental: Serum total cholesterol kit (batch number 20131112), low density lipoprotein LDL-C kit (batch number 20140114), high density lipoprotein HDL-C kit (batch number 20140413), triglyceride TG kit (batch number 20131226) and glutamic-pyruvic transaminase ALT kit (batch number 20131006) are purchased from Nanjing Jiancheng Bioengineering Institute.
as §1, §2
2) Contents of serum total cholesterol, low density lipoprotein, high density lipoprotein and triglyceride.
3) Contents of glutamic-pyruvic transaminase.

[5] = test system: hyperglycemia KK-A^y mice; assay: liver tissue section of hyperglycemia KK-A^y mice (HE); format: in vivo; details: FIG. 1, 10 and 20 mg/kg
Experimental: Detect the fasting glucose of male KK-A^y mice, which are 6-8 weeks with the weight of 28-32 g, and divide them into different groups according to the blood sugar level and body weight: (2) model control group, (3) which is administered by compound S13 with the dose of 1 mg/kg, (4) which is administered by compound S13 with the dose of 5 mg/kg, (5) which is administered by compound S13 with the dose of 10 mg/kg, (6) which is administered by compound S13 with the dose of 20 mg/kg, (7) which is administered by compound S28 with the dose of 1 mg/kg, (8) which is administered by compound S28 with the dose of 5 mg/kg, (9) which is administered by compound S28 with the dose of 10 mg/kg, (10) which is administered by compound S28 with the dose of 20 mg/kg, (11) which is administered by metformin with the dose of 8 g/kg, (12) which is administered by compound S13 with the dose of 2.5 mg/kg and metformin with the dose of 4 g/kg, (13) which is administered by compound S13 with the dose of 5 mg/kg and metformin with the dose of 4 g/kg, (14) which is administered by compound S28 with the dose of 2.5 mg/kg and metformin with the dose of […], (15) which is administered by compound S28 with the dose of 5 mg/kg and metformin with the dose of […]. Each group has 8 mice, and is administrated successively for 3 weeks. Model control group is given with equal amounts of 0.5% CMC-Na. […]

SMILES | effect on blood sugar level of hyperglycemic mice (in words) ([1]; 10 days) | glucose tolerance, blood sugar 0 min ([2]; 1 mg/kg, groups 3, 7) | glucose tolerance, blood sugar 0 min ([2]; 5 mg/kg, groups 4, 8) | glucose tolerance, blood sugar 0 min ([2]; 10 mg/kg, groups 5, 9) | glucose tolerance, blood sugar 0 min ([2]; 20 mg/kg, groups 6, 10) | glucose tolerance, blood sugar 30 min ([2]; 1 mg/kg, groups 3, 7) | glucose tolerance, blood sugar 30 min ([2]; 5 mg/kg, groups 4, 8) | glucose tolerance, blood sugar 30 min ([2]; 10 mg/kg, groups 5, 9) | glucose tolerance, blood sugar 30 min ([2]; 20 mg/kg, groups 6, 10) | glucose tolerance, blood sugar 60 min ([2]; 1 mg/kg, groups 3, 7) | glucose tolerance, blood sugar 60 min ([2]; 5 mg/kg, groups 4, 8) | glucose tolerance, blood sugar 60 min ([2]; 10 mg/kg, groups 5, 9) | glucose tolerance, blood sugar 60 min ([2]; 20 mg/kg, groups 6, 10) | glucose tolerance, blood sugar 120 min ([2]; 1 mg/kg, groups 3, 7) | glucose tolerance, blood sugar 120 min ([2]; 5 mg/kg, groups 4, 8) | glucose tolerance, blood sugar 120 min ([2]; 10 mg/kg, groups 5, 9) | glucose tolerance, blood sugar 120 min ([2]; 20 mg/kg, groups 6, 10) | fat vacuole in hepatocyte (liver tissue section, HE) [3] | effect on liver index of fatty liver rats (in words) [4] | ALT ([4]; 10 mg/kg) | other results
CC(C)=CCC/C(C)=C/CCC1=C[C@H](c2cc(O)ccc2O)OC1=O [S13, (R,E)-5-(2,5-dihydroxyphenyl)-3-(4,8-dimethylnona-3,7-dien-1-yl)furan-2(5H)-one] | significantly decrease the blood sugar level of hyperglycemic mice | 9.6 | 6.9* | 7.96 | 6.90* | 12.5** | 9.1** | 16.95** | 14.00** | 10.2** | 9.1** | 13.20** | 12.45** | 8.2** | 5.2** | 10.93** | 11.90** | almost disappear | effectively decrease the liver index of fatty liver rats | 48.24** U/L | blood sugar after administration ([1]; 50 mg/kg intragastric, 10 days, fasted 10 hours): 5.11** mmol/L; blood sugar before administration ([1]; before administration): 14.50 mmol/L; HDL-C ([4]; 10 mg/kg): 0.57* mmol/L; LDL-C ([4]; 10 mg/kg): 0.83* mmol/L; Liver index ([4]; 10 mg/kg): 2.85**; TC ([4]; 10 mg/kg): 1.81** mmol/L; TG ([4]; 10 mg/kg): 1.21** mmol/L; ALT ([4]; 20 mg/kg): 33.56** U/L; HDL-C ([4]; 20 mg/kg): 0.72** mmol/L; LDL-C ([4]; 20 mg/kg): 0.71** mmol/L; Liver index ([4]; 20 mg/kg): 2.47**; TC ([4]; 20 mg/kg): 1.37** mmol/L; TG ([4]; 20 mg/kg): 1.08** mmol/L; fat vacuole in hepatocyte (liver tissue section, HE) [5]: almost disappear
CC(C)=CCC/C(C)=C/CCC1=C[C@@H](c2cc(O)ccc2O)OC1=O [S28, (S,E)-5-(2,5-dihydroxyphenyl)-3-(4,8-dimethylnona-3,7-dien-1-yl)furan-2(5H)-one] | significantly decrease the blood sugar level of hyperglycemic mice | 9.5 | 6.8** | 7.6* | 6.9** | 11.3** | 9.3** | 16.9** | 14.3** | 10.5** | 9.3** | 13.2** | 12.4** | 8.3** | 5.1** | 10.9** | 11.9** | almost disappear | effectively decrease the liver index of fatty liver rats | 45.97** U/L | HDL-C ([4]; 10 mg/kg): 0.61** mmol/L; LDL-C ([4]; 10 mg/kg): 0.79** mmol/L; Liver index ([4]; 10 mg/kg): 2.91**; TC ([4]; 10 mg/kg): 1.95** mmol/L; TG ([4]; 10 mg/kg): 1.38** mmol/L; ALT ([4]; 20 mg/kg): 41.08** U/L; HDL-C ([4]; 20 mg/kg): 0.68** mmol/L; LDL-C ([4]; 20 mg/kg): 0.70** mmol/L; Liver index ([4]; 20 mg/kg): 2.58**; TC ([4]; 20 mg/kg): 1.36** mmol/L; TG ([4]; 20 mg/kg): 1.15** mmol/L; fat vacuole in hepatocyte (liver tissue section, HE) [5]: almost disappear
